Where two headings read alike, the source gives them in different places. Non-standard residues stand in square brackets, D forms with d. Residues, ends and D or L forms follow the SMILES beside them. *: point of attachment. Nle = CCCC[C@H](N)C(=O)O; Cbz = O=C(OCc1ccccc1)*; CH2F = FC*
What was measured:
[1] = system: HT-1080, BJeLR and Calu-1 cells; assay: Modulatory profiling of cell death inhibitors against erastin; assay type: cell-based, human; conditions: erastin 10 μM, 24 hours; 10-point, 4-fold dilution series
Experimental: The day before the experiment, cells were seeded in black, 384-well clear bottom plates (Corning) at a density of 1,000 cells/well using a Beckman Biomek FX Workstation. All compounds (except 3-methyladenine and chloroquine, which were diluted in water) were diluted in DMSO at 250 times the final highest test concentration, and aliquoted across a 384-well plate (Greiner, Monroe, N.C.). A ten-point, 4-fold dilution series of each inhibitor in DMSO was made using a multichannel pipette. Replicates of this mother plate were stored at −20° C. […] Medium was removed from cells and replaced with 36 μL medium containing DMSO (0.1%) or erastin (10 μM final concentration). Using the Biomek FX, 4 μL were then transferred from each inhibitor daughter plate into the DMSO-containing or erastin-containing assay plates. For 3-methyladenine and chloroquine, inhibitors were prepared fresh in media at 10-fold the final concentration in the presence of DMSO or 10 μM erastin. These solutions were manually pipetted onto cells in 384-well format. Assay plates were incubated at 37° C. for 24 hours. Viability was assessed using Alamar Blue.
The modulatory effect (Me) for drug-drug interactions was computed as follows. First, plate-based background correction was performed using Alamar Blue values from empty (cell-free) wells included on each plate. Next, within each experiment, 100% viability is determined as the average Alamar Blue score for cells treated with modulator=DMSO and lethal=DMSO, and all Alamar Blue values were scaled from 0 to 1 with the DMSO×DMSO condition=1. The individual effects of each modulator and lethal (e.g. in the presence of DMSO) at all tested doses were then ascertained. […] Next, BExp was compared to the actual observed viability. […] By default, Me in DMSO-treated cells is equal to 0. […] Me values for each inhibitor-lethal drug combination were hierarchically clustered and plotted as a heatmap using the heatmaps.2 function of the gplots library in R.

[2] = Metabolic stability in mouse liver microsomes; assay type: in vitro ADME; conditions: for Elimination rate constant (k) / Intrinsic Clearance (CLint) (mL/min/g liver): Mouse; for half-life at 0.5 μM: mouse, liver microsomes
Experimental: Test compounds (0.5 μM) were incubated at 37° C. for up to 45 minutes in 50 mM of potassium phosphate buffer (pH 7.4) containing mouse liver microsomal protein (0.5 mg/mL) and an NADPH generating system (0.34 mg/mL β-nicotinamide adenine dinucleotide phosphate (NADP), 1.56 mg/mL glucose-6-phosphate, 1.2 units/mL glucose-6-phosphate dehydrogenase). At 0, 5, 15, 30, and 45 minute intervals, an aliquot was taken and quenched with acetonitrile (ACN) containing internal standard. No-cofactor controls at 45 minutes were prepared. Following completion of the experiment, the samples were analyzed by LC-MS/MS.
The half-life (t1/2) was calculated using the following equation: t1/2=0.693/k Where, k is the elimination rate constant of test compounds obtained by fitting the data to the equation: C=initial×exp(−k×t) Intrinsic clearance (Clint) is calculated as liver clearance from the half-life using the following equation: […]
0.5 mg protein/mL incubation
Ethoxycoumarin was used as a control.

HT-1080 cells = assay: Inhibition of erastin (10 μM)-induced death in HT-1080 cells (Alamar Blue); assay type: cell-based, human; conditions: for EC50: Homo sapiens, read-out: EC50
Experimental: Cell viability was typically assessed in 384-well format by Alamar Blue (Invitrogen) fluorescence (ex/em 530/590) measured on a Victor3 platereader (Perkin Elmer, Waltham, Mass.). In some experiments, Trypan Blue dye exclusion counting was performed using an automated cell counter (ViCell, Beckman-Coulter Inc., Brea, Calif.). Cell viability in test conditions is reported as a percentage relative to the negative control treatment.
The ability of various compounds disclosed herein to inhibit death in erastin (10 μM)-treated HT-1080 cells were tested. Cell viability was assessed by Alamar Blue. EC50 values (nM) were computed from dose response curves.
HT-1080 cells are cultured in DMEM containing 10% fetal bovine serum, 1% supplemented non-essential amino acids and 1% pen/strep mixture (Gibco) and maintained in a humidified environment at 37° C. with 5% CO2 in a tissue culture incubator. 1,000 HT-1080 cells are seeded per well in duplicate 384-well plates (Corning) using a BioMek FX liquid handling robot (Beckman Coulter). The next day, the medium is replaced with 36 μL of medium containing 10 μM erastin with 4 μL of medium containing a dilution series (previously prepared) of DMSO, Fer-1 (positive control) or Fer-1 analogs. 24 hours later, 10 μL Alamar Blue (Invitrogen) cell viability solution is added to the growth media to a final concentration of 10%. Cells are incubated a further 6 hours and then the Alamar Blue fluorescence intensity recorded using a Victor 3 platereader (PerkinElmer)(ex/em 530/590). All experiments are performed at least twice and the background (no cells)-subtracted Alamar Blue values for each combination are averaged between replicates.

[3] = In vitro stability study in mouse plasma; assay type: in vitro ADME
Experimental: The assay was conducted by incubating 1 μM of test compounds with Mouse Plasma (Strain […]) for a series of incubation times (0, 15, 30, 60, 120 minutes) at various temperatures (wet ice, room temperature, or 37° C.) with 5% CO2 and shaking (130 rpm). At each time point, the samples were quenched with 200 μL of stop solution containing an internal standard and kept on ice. The samples were analysed by LC-MS/MS.

[4] = pH 7.4, Mouse, Compound Conc = 0.5 μM, read-out: Half life (t½)
[5] = HT-1080, Table 1 (Example 10), erastin (10 μM)-treated HT-1080 cells

## CCOC(=O)[C@H]1O[C@@H]1C(=O)N[C@@H](CC(C)C)C(=O)NCCC(C)C (relative stereo) [Compound E64d, (2S,3S)-trans-epoxysuccinyl-L-leucylamido-3-methylbutane ethyl ester]
[1]
  modulation of erastin-induced death: not consistently modulated

## Cn1cnc(N)c2ncnc1-2 [3-methyladenine]
[1]
  modulation of erastin-induced death: not consistently modulated

## CCCC[C@@H](C=O)NC(=O)[C@H](CC(C)C)NC(=O)[C@H](CC(C)C)NC(C)=O [ALLN, N-Acetyl-Leu-Leu-Nle-CHO] (Ac-Leu-Leu-[Nle]-aldehyde)
[1]
  modulation of erastin-induced death: not consistently modulated

## C[C@@H]1C[C@@H]([C@H](O)CC2CC(=O)NC(=O)C2)C(=O)[C@@H](C)C1 [CHX, cycloheximide]
[1]
  modulation of erastin-induced death: to a weaker extent

## CCOc1ccc2ccc(=O)oc2c1 [Ethoxycoumarin, reference compound]
[2]; Compound Conc = 0.5 μM
  Elimination rate constant (k): 0.2661
  Intrinsic Clearance (CLint) (mL/min/g liver): 27.94 mL/min/g liver
[2]; [4]
  half-life at 0.5 μM: 0.0433 h

## CCOC(=O)c1ccc(NC23CC4CC(CC(C4)C2)C3)c(NCc2ccccc2)c1 [SRS15-23, ethyl 3-(benzylamino)-4-(1-adamantylamino)benzoate]
HT-1080 cells; [5]
  EC50: 23 nM

## CCOC(=O)c1ccc(NC23CC4CC(CC(C4)C2)C3)c(NCc2ccncc2)c1 [SRS15-24, ethyl 4-(1-adamantylamino)-3-((pyridin-4-ylmethyl)amino)-benzoate]
HT-1080 cells; [5]
  EC50: 8.6 nM

## CCOC(=O)c1ccc(NC23CC4CC(CC(C4)C2)C3)c(/N=C\c2cncnc2)c1 [SRS15-72, ethyl 4-(adamantylamino)-3-(pyrimidin-5-ylmethyleneamino)benzoate]
[3]; Room Temperature, 0 min
  Peak Area Ratio: 2.0737
  Percent Remaining: 100.0%
[3]; Room Temperature, 15 min
  Peak Area Ratio: 1.1581
  Percent Remaining: 55.8%
[3]; Room Temperature, 30 min
  Peak Area Ratio: 0.5320
  Percent Remaining: 25.7%
[3]; Room Temperature, 60 min
  Peak Area Ratio: 0.2502
  Percent Remaining: 12.1%
[3]; Room Temperature, 120 min
  Peak Area Ratio: 0.0841
  Percent Remaining: 4.1%
[3]; Wet Ice, 0 min
  Peak Area Ratio: 2.6066
  Percent Remaining: 100.0%
[3]; Wet Ice, 15 min
  Peak Area Ratio: 2.0815
  Percent Remaining: 79.9%
[3]; Wet Ice, 30 min
  Peak Area Ratio: 1.6279
  Percent Remaining: 62.5%
[3]; Wet Ice, 60 min
  Peak Area Ratio: 1.4397
  Percent Remaining: 55.2%
[3]; Wet Ice, 120 min
  Peak Area Ratio: 1.2446
  Percent Remaining: 47.7%
[2]; Compound Conc = 0.5 μM
  Elimination rate constant (k): 0.0045
  Intrinsic Clearance (CLint) (mL/min/g liver): 0.47 mL/min/g liver
[2]; [4]
  half-life at 0.5 μM: 2.57 h
HT-1080 cells; [5]
  EC50: 288 nM

## CCOC(=O)c1ccc(NC23CC4CC(CC(C4)C2)C3)c(NCc2cncnc2)c1 [SRS16-41, ethyl 4-(adamantylamino)-3-(pyrimidin-5-ylmethylamino)benzoate]
[3]; Room Temperature, 0 min
  Peak Area Ratio: 5.8556
  Percent Remaining: 100.0%
[3]; Room Temperature, 15 min
  Peak Area Ratio: 0.6709
  Percent Remaining: 11.5%
[3]; Room Temperature, 30 min
  Peak Area Ratio: 0.0885
  Percent Remaining: 1.5%
[3]; Room Temperature, 60 min
  Peak Area Ratio: 0.0206
  Percent Remaining: 0.4%
[3]; Room Temperature, 120 min
  Peak Area Ratio: 0.0159
  Percent Remaining: 0.3%
[3]; Wet Ice, 0 min
  Peak Area Ratio: 6.9233
  Percent Remaining: 100.0%
[3]; Wet Ice, 15 min
  Peak Area Ratio: 5.7631
  Percent Remaining: 83.2%
[3]; Wet Ice, 30 min
  Peak Area Ratio: 4.7595
  Percent Remaining: 68.7%
[3]; Wet Ice, 60 min
  Peak Area Ratio: 3.4547
  Percent Remaining: 49.9%
[3]; Wet Ice, 120 min
  Peak Area Ratio: 1.9564
  Percent Remaining: 28.3%
[2]; Compound Conc = 0.5 μM
  Elimination rate constant (k): 0.3149
  Intrinsic Clearance (CLint) (mL/min/g liver): 35.9 mL/min/g liver
[2]; [4]
  half-life at 0.5 μM: 0.0333 h
HT-1080 cells; [5]
  EC50: 16 nM

## CC(C)OC(=O)c1ccc(NC23CC4CC(CC(C4)C2)C3)c(/N=C\c2cncnc2)c1 [SRS16-80, isopropyl 4-(adamantylamino)-3-(pyrimidin-5-ylmethyleneamino)benzoate]
[3]
  mouse plasma stability: rapidly hydrolyzed
[3]; 37° C., 0 minutes
  Percent Remaining: 100.0%
  Sum of Peak Area Ratios: 0.382
[3]; 37° C., 15 minutes
  Percent Remaining: 23.8%
  Sum of Peak Area Ratios: 0.0911
[3]; 37° C., 30 minutes
  Percent Remaining: 9.9%
  Sum of Peak Area Ratios: 0.0379
[3]; 37° C., 60 minutes
  Percent Remaining: 4.5%
  Sum of Peak Area Ratios: 0.017
[3]; 37° C., 120 minutes
  Percent Remaining: 2.5%
  Sum of Peak Area Ratios: 0.0095
[3]; C57BL/4, mouse, plasma, read-out: T1/2 in mouse plasma
  half-life at 1 μM: < 0.25 h
[2]; Compound Conc = 0.5 μM
  Elimination rate constant (k): 0.0089
  Intrinsic Clearance (CLint) (mL/min/g liver): 0.94 mL/min/g liver
[2]; [4]
  half-life at 0.5 μM: 1.29 h
[2]; pH 7.4, stated in the text of Example 15, read-out: T1/2 in mouse liver microsomes
  half-life at 0.5 μM: 2.57 h
HT-1080 cells; HT-1080, erastin (10 μM)
  fold lower potency caused by the imine: about 6 fold
HT-1080 cells; HT-1080, Example 15, erastin (10 μM), HT-1080
  EC50: ~300 nM
HT-1080 cells; [5]
  EC50: 583 nM

## CO/C1=C\C(C)=C\[C@@H](C)[C@@H](O)[C@@H](C)C/C(C)=C/C=C/[C@H](OC)[C@@H]([C@@H](C)[C@@H](O)[C@H](C)[C@@]2(O)C[C@@H](O)[C@H](C)[C@@H](C(C)C)O2)OC1=O [bafilomycin A1]
[1]
  modulation of erastin-induced death: not consistently modulated

## CCN(CC)CCCC(C)Nc1ccnc2cc(Cl)ccc12 (stereo not shown) [chloroquine]
[1]
  modulation of erastin-induced death: not consistently modulated

## COC(=O)CC(NC(=O)C(C)NC(=O)C(NC(=O)OCc1ccccc1)C(C)C)C(=O)CF (stereo not drawn) [z-VAD-fmk, carbobenzyloxy-valyl-alanyl-aspartyl-[O-methyl]-fluoromethylketone] (Cbz-Val-Ala-Asp(OMe)-CH2F; configuration not given here)
[1]
  modulation of erastin-induced death: not consistently modulated

From US11192849B2, “Compounds, compositions, and methods for modulating ferroptosis and treating excitotoxic disorders” (THE TRUSTEES OF COLUMBIA UNIVERSITY IN THE CITY OF NEW YORK, priority 2013, dated 2021)
